From US9758516B2, “Crystalline form of an anxiolytic compound” (Bionomics Limited, priority 2013, dated 2017)
Values belong to the compound of their own block, whether it stands above or below them.

Experiments:
[1] = reported, see U.S. Pat. No. 8,293,737; cited from earlier work
[2] = Stability study of Form B stored at about 25° C. and about 60% r.h. (HPLC, XRPD, IR); type: physicochemical; parameters: key to XRPD / IR: The term “complies” refers to substantially the same XRPD pattern and/or IR spectrum as the sample at the incept of the storage (time point=initial); details: for Concentration of compound 1 by HPLC Assay (anhydrous basis) / IR / XRPD: about 25° C., about 60% r.h.
Description: A sample of Form B was stored at about 25° C. and about 60% r.h. for a period of time (e.g., 24 months). The concentration of compound 1 in the sample was assayed using HPLC, XRPD, and IR at different time points. The term “complies” refers to substantially the same XRPD pattern and/or IR spectrum as the sample at the incept of the storage (time point=initial).

[3] = Stability study of Form B stored at about 40° C. and about 75% r.h. (HPLC, XRPD, IR); type: physicochemical; parameters: key to XRPD / IR: The term “complies” refers to substantially the same XRPD pattern and/or IR spectrum as the sample at the incept of the storage (time point=initial); details: for Concentration of compound 1 by HPLC Assay (anhydrous basis) / IR / XRPD: about 40° C., about 75% r.h.
Description: Standard solutions of the SP196-FD-P1 free drug of compound 1 and the L-malate salt of compound 1 (SP196-MLA-P4) were prepared in the concentration range of 0.2-0.05 mg/mL for the construction of a calibration curve.
Another sample of Form B was stored at about 40° C. and about 75% r.h. for a period of time (e.g., 6 months). The concentration of compound 1 in the sample was assayed using HPLC, XRPD, and IR at different time points. The term “complies” refers to substantially the same XRPD pattern and/or IR spectrum as the sample at the incept of the storage (time point=initial).

[4] = Dynamic vapor sorption (DVS) measurement, hygroscopicity; type: physicochemical
Description: Projekt Messtechnik Sorptions Prüfsystem SPS 11-100n or Surface Measurement Systems DVS-1. The sample was placed on an aluminum or platinum holder on top of a microbalance and allowed to equilibrate for 2 h at 50% r.h. before starting one of two pre-defined humidity programs:
(2) 50→0% r.h. (5%/h); 5 h at 0% r.h.;
(3) 0→95% r.h. (5%/h); 5 h at 95% r.h.; and
The hygroscopicity was classified based on the mass gain at 85% r.h. relative to the initial mass as follows: deliquescent (sufficient water adsorbed to form a liquid), very hygroscopic (mass increase of ≧15%), hygroscopic (mass increase <15% and ≧2%), slightly hygroscopic (mass increase <2% and ≧0.2%), or non-hygroscopic (mass increase <0.2%).
During the DVS measurement (FIG. 4), the relative humidity was first lowered from 50% r.h. to 0% r.h., then raised from 0% r.h. to 95% r.h. and lowered back again to 50% r.h. […] Upon increasing the relative humidity to 95% r.h., a gradual mass gain of about 0.3 wt % (relative to the mass at 0% r.h.) was observed. […] The mass increase of 0.1 wt % at 85% r.h. (relative to the starting mass at 50% r.h.) classifies the sample as non-hygroscopic.

[5] = Drying of Form B under vacuum at 40° C.; type: physicochemical
Description: A solid sample of Form B was dried in an attempt to dehydrate it. The sample was stored under vacuum (<5 mbar (e.g., about 4 mbar)) at 40° C. overnight or for 1 day.

[6] = Competitive slurry experiment, Form B versus anhydrous form; type: physicochemical
Excerpt: In some embodiments, it would be desirable to provide a crystalline polymorph of compound 1 that, as compared to the amorphous compound 1, imparts improved physical characteristics such as stability and/or ease of formulation. Accordingly, provided herein is a crystalline form (denoted Form B) of compound 1. Form B is a hemihydrate of compound 1. […] In some embodiments, Form B has a water content of about 2.0 wt %. […] In a competitive slurry experiment there was a tendency for the anhydrous form to convert to Form B.

[7] = vacuum (<5 mbar) at 40° C. overnight or for 1 day

Structure (SMILES): CCn1cc(C(=O)N2CCOCC2)c(=O)c2cc(NC3Cc4ccccc4C3)cnc21 [Compound 1, 1-ethyl-6-(indan-2-ylamino)-3-(morpholine-4-carbonyl)-1,8-naphthyridin-4-one]
sedative side effects [1]: without sedative side effects

stable upon storage, duration ([2]; about 25° C. and about 60% r.h.): at least 24 months
Concentration of compound 1 by HPLC Assay (anhydrous basis) ([2]; 3 months): 99.4% w/w
IR ([2]; 3 months): complies
XRPD ([2]; 3 months): complies
Concentration of compound 1 by HPLC Assay (anhydrous basis) ([2]; 6 months): 99.6% w/w
IR ([2]; 6 months): complies
XRPD ([2]; 6 months): complies
Concentration of compound 1 by HPLC Assay (anhydrous basis) ([2]; 12 months): 99.3% w/w
IR ([2]; 12 months): complies
XRPD ([2]; 12 months): complies
Concentration of compound 1 by HPLC Assay (anhydrous basis) ([2]; 18 months): 99.4% w/w
IR ([2]; 18 months): complies
XRPD ([2]; 18 months): complies
Concentration of compound 1 by HPLC Assay (anhydrous basis) ([2]; 24 months): 99.2% w/w
IR ([2]; 24 months): complies
XRPD ([2]; 24 months): complies
Concentration of compound 1 by HPLC Assay (anhydrous basis) ([2]; time point Initial): 99.5% w/w
stable upon storage, duration ([3]; about 40° C. and about 75% r.h.): at least 6 months
Concentration of compound 1 by HPLC Assay (anhydrous basis) ([3]; 1 month): 99.6% w/w
Concentration of compound 1 by HPLC Assay (anhydrous basis) ([3]; 2 months): 99.3% w/w
Concentration of compound 1 by HPLC Assay (anhydrous basis) ([3]; 3 months): 99.3% w/w
IR ([3]; 3 months): complies
XRPD ([3]; 3 months): complies
Concentration of compound 1 by HPLC Assay (anhydrous basis) ([3]; 6 months): 99.4% w/w
IR ([3]; 6 months): complies
XRPD ([3]; 6 months): complies
Concentration of compound 1 by HPLC Assay (anhydrous basis) ([3]; time point Initial): 99.5% w/w
hygroscopicity (in words) [4]: substantially non-hygroscopic
FT-Raman spectrum after the DVS measurement compared to before ([4]; after DVS cycle 50→0→95→50% r.h.): unchanged
mass increase (DVS) ([4]; at 85% r.h., relative to the starting mass at 50% r.h.): 0.1 wt %
mass gain (DVS) ([4]; upon increasing the relative humidity to 95% r.h., relative to the mass at 0% r.h.): about 0.3 wt %
mass loss (DVS) ([4]; upon lowering the relative humidity from 50% r.h. to 0% r.h.): about 0.1 wt %
final mass (DVS) ([4]; upon lowering the relative humidity from 95% r.h. to 50% r.h.): equal to the starting mass
stability upon drying [5]: stable upon drying
loss of H2O of the dried sample (TG-FTIR) ([5]; dried sample, from 50° C. to 200° C.): about 1.9 wt %
XRPD pattern of the dried sample compared to before drying [5, 7]: unchanged
Structure (SMILES): CCn1cc(C(=O)N2CCOCC2)c(=O)c2cc(NC3Cc4ccccc4C3)cnc21 [Form B, 1-ethyl-6-(indan-2-ylamino)-3-(morpholine-4-carbonyl)-1,8-naphthyridin-4-one]
hygroscopicity classification ([4]; based on the mass gain at 85% r.h. relative to the initial mass): non-hygroscopic (non-hygroscopic (mass increase <0.2%))
dehydration on drying [5, 7]: no dehydration and loss of solvent occurred
relative stability of forms [6]: more stable than an anhydrous form of compound 1
